Test results: patent US20110275699A1, “Treatment For Obesity And Diabetes” (University of California, priority 2010, published 2011)

Legend:
DNA-PK [1] = assay: DNA-PK phosphorylation in treated 293 cells (western blotting); assay type: cell-based; conditions: 2 hrs
Experimental: (§1) C57BL/6J male mice (Jackson laboratory) were used at 7 wks of age unless specified. For fasting/feeding experiments, mice were fasted for 40 hrs and then fed a high carbohydrate, fat-free diet for indicated time periods. HepG2 cells were grown in DMEM supplemented with 10% fetal bovine serum and 100 units/ml penicillin/streptomycin. M059J and M059K were from ATCC and grown in the same medium containing 4 mg/ml glutamine. HepG2 cells were maintained in serum free media overnight prior to insulin treatment. For insulin treatment, HepG2 cells were treated with 100 nM insulin or DMSO for 30 min. 293FT cells in DMEM supplemented with 10% fetal bovine serum and 100 units/ml penicillin/streptomycin/neomycin or 293F cells in 293 Freestyle medium were transfected with expression constructs or siRNA (Santa Cruz) using lipofectamine 2000 (Invitrogen) or 293 Fectin (Invitrogen), respectively. 293 cells were treated with either control DMSO or OA at 1 uM and Taut at indicated concentrations for 2 hrs. […]
(§2) Therefore, Applicants tested the S262 phosphorylation status of USF-1 upon treatment with okadaic acid (OA), which is known to prevent dephosphorylation of DNA-PK (Douglas et al., 2001). […] Similarly, PP1 was not detected in nuclear extracts from control HepG2 cells but was increased upon insulin treatment (FIG. 3H, right panel). […]

USF-1 [2] = assay: K237 acetylation of USF-1 in cells (IP and western blotting); assay type: cell-based; conditions: OA-treated cells vs control cells
Experimental: as §1, with “respectively.” for “respectively. 293 cells were treated with either control DMSO or OA at 1 uM and Taut at indicated concentrations for 2 hrs.”
Since USF-1 is both phosphorylated and acetylated at nearby sites and these posttranslational modifications are critical for USF-1 function in FAS promoter activation, we tested whether an increase in S262 phosphorylation of USF-1 could affect K237 acetylation. […] Conversely, we detected a significant level of K237 acetylation of USF-1 in control cells, which was reduced in OA-treated cells (FIG. 5B, left panel, lane 2). […]

USF-1 [3] = assay: S262 phosphorylation of USF-1 in 293 cells (IP and western blotting); assay type: cell-based; conditions: 2 hrs
Experimental: as §1, with “hrs. Expression vectors for DNA-PK and mutants, HAT, HDAC9, PP1, Kus and −0.7 p53-Luc were from laboratories of Drs. Meek, Kouzarides, Zelent, Lamond, Shay and Oren respectively. siRNA for knockdown of DNA-PK is commercially available at Santa Cruz Biotechnology Inc.” for “hrs.”
Next S262 phosphorylation of USF-1 by DNA-PK in cultured cells was tested. […] Applicants detected higher S262 phosphorylation of USF-1 immunoprecipitated from cells overexpressing WT DNA-PK (FIG. 3B, left panel, lane 2), but not from cells expressing DNA-PK with T3950D mutation (FIG. 3B, lane 3) or control cells (FIG. 3B, lane 1). Furthermore, Applicants detected even higher S262 phosphorylation of USF-1 from cells expressing DNAPK with T3950A mutation compared to WT DNA-PK-expressing cells (FIG. 3B, middle panel, lane 3). […] WT USF-1, but not USF-1 containing S262A mutation, was detected to have higher phosphorylation upon cotransfection with DNA-PK (FIG. 3B, right panel, lanes 2 and 3). […]

DNA-PK [4] = assay: DNA-PK phosphorylation in HepG2 cells with or without insulin; assay type: cell-based; conditions: insulin-treated HepG2 cells vs noninsulin-treated cells
Experimental: as §1, with “hrs. Expression vectors for DNA-PK and mutants, HAT, HDAC9, PP1, Kus and −0.7 p53-Luc were from laboratories of Drs.” for “hrs.”
DNA-PK activity is known to be regulated by phosphorylation/dephosphorylation, independent of its activation by DNA. […] DNA-PK phosphorylation was detected using phosphoserine/threonine antibodies that detect autophosphorylation at the S/TQ motifs of DNA-PK.

USF-1 [5] = assay: USF-1 modifications in M059K cells containing WT DNA-PK; assay type: cell-based, human; conditions: insulin 100 nM 30 min
Experimental: as §1, with “hrs. Expression vectors for DNA-PK and mutants, HAT, HDAC9, PP1, Kus and −0.7 p53-Luc were from laboratories of Drs. Meek, Kouzarides, Zelent, Lamond, Shay and Oren respectively. siRNA for knockdown of DNA-PK is commercially available at Santa Cruz Biotechnology Inc.” for “hrs.”

USF-1 [6] = assay: USF-1 S262 phosphorylation/K237 acetylation in HepG2 cells with or without insulin; assay type: cell-based; conditions: HepG2, control siRNA-transfected cells, insulin 100 nM 30 min
Experimental: as §1, with “hrs. Expression vectors for DNA-PK and mutants, HAT, HDAC9, PP1, Kus and −0.7 p53-Luc were from laboratories of Drs. Meek, Kouzarides, Zelent, Lamond, Shay and Oren respectively. siRNA for knockdown of DNA-PK is commercially available at Santa Cruz Biotechnology Inc.” for “hrs.”

PP1 = PP1 in nuclear extracts of HepG2 cells; assay type: cell-based; conditions: insulin treatment vs control
Experimental: as §1, §2

USF-1 [7] = assay: USF-1 modifications in M059J cells lacking DNA-PKcs; assay type: cell-based, human; conditions: insulin 100 nM 30 min
Experimental: as §1, with “hrs. Expression vectors for DNA-PK and mutants, HAT, HDAC9, PP1, Kus and −0.7 p53-Luc were from laboratories of Drs. Meek, Kouzarides, Zelent, Lamond, Shay and Oren respectively. siRNA for knockdown of DNA-PK is commercially available at Santa Cruz Biotechnology Inc.” for “hrs.”

USF-1 [8] = assay: USF-1 interaction (IP) and recruitment of proteins to the FAS promoter (ChIP) in 293 cells; assay type: cell-based; conditions: Taut at indicated concentrations for 2 hrs
Experimental: as §1, with “hrs. Expression vectors for DNA-PK and mutants, HAT, HDAC9, PP1, Kus and −0.7 p53-Luc were from laboratories of Drs.” for “hrs.”
Livers from fasted or fed mice were fixed with DSG at 2 mM for 45 min at RT before formaldehyde cross-linking Soluble chromatin was quantified by absorbance at 260 nm, and equivalent amounts of input DNA were immunoprecipitated. […]

C=C1[C@@H](O)[C@@H]2O[C@]3(CC[C@H](/C=C/[C@@H](C)[C@@H]4CC(C)=C[C@@]5(O[C@H](C[C@@](C)(O)C(=O)O)CC[C@H]5O)O4)O3)CC[C@H]2O[C@@H]1[C@@H](O)C[C@H](C)[C@H]1O[C@@]2(CCCCO2)CC[C@H]1C [OA, okadaic acid]
phosphorylation of DNA-PK (DNA-PK [1]; OA 1 uM, vs control DMSO): greatly increased | K237 acetylation of USF-1 (USF-1 [2]): reduced | S262 phosphorylation of USF-1 (USF-1 [3]; OA 1 uM, vs control DMSO): hardly detectable

insulin
DNA-PK phosphorylation (DNA-PK [4]): not detectable | K237 acetylation of USF-1 (USF-1 [5]): increased | S262 phosphorylation of USF-1 (USF-1 [5]): increased | K237 acetylation of USF-1 (USF-1 [6]): markedly increased | S262 phosphorylation of USF-1 (USF-1 [6]): markedly increased | PP1 in nuclear extracts (PP1): increased | USF modifications (S262 phosphorylation, K237 acetylation) (USF-1 [7]): did not result in any significant increase

CO[C@H]([C@H](O)CC(=O)[C@@H](C)[C@@H](O)CC[C@@H](C)[C@@H]1O[C@]2(CC[C@@H](C)[C@H](CC[C@H](C)C(C)=O)O2)CC[C@@H]1C)[C@H](OC(=O)C[C@@H](O)C1=C(C)C(=O)OC1=O)C(C)C [Taut, tautomycin]
USF-1 interaction and recruitment of various proteins (USF-1 [8]): abolished | phosphorylated DNA-PK (DNA-PK [1]; Taut 1 uM, vs control cells): easily detected | S262 phosphorylation of USF-1 (USF-1 [3]; Taut 10 nM): decreased | S262 phosphorylation of USF-1 (USF-1 [3]; Taut 1 uM): hardly detectable
